# Experimental data taken from patent US10654834B2 (Venenum Biodesign, LLC, priority 2016, dated 2020).
# Structures can show the parent of a compound that is named as a salt.
# Key:
# human TGR5 receptor = biological target: T1, human TGR5 receptor (Homo sapiens, UniProt Q8TDU6); assay: Human TGR5 cAMP production assay (hTGR5-CHO cells, DiscoveRx cAMP XS+ kit); type: cell-based; conditions: luminescent cAMP assay, read-out: Human TGR5 Lum. cAMP Activity (EC50)
# T1 construct: host or cells: CHO-K1 (hTGR5-CHO)
# T1 sequence (Q8TDU6 1-330): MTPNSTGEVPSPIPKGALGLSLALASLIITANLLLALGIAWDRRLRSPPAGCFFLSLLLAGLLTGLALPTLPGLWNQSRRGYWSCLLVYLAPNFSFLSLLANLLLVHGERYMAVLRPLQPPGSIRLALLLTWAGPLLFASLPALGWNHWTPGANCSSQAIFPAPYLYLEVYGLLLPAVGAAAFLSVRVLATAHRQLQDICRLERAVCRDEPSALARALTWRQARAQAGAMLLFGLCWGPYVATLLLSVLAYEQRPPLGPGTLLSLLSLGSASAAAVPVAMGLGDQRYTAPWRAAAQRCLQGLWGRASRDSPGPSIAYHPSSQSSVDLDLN
# Method: Human TGR5 cAMP Production Assay
# Compounds of the present invention were evaluated for their ability to induce cAMP production using CHO-K1 cells overexpressing the human TGR5 receptor.
# CHO-K1 cells stably expressing human TGR5 receptor (accession number NM_001077194.1) (hTGR5) (i.e., hTGR5-CHO cells) were purchased from DiscoveRx Corporation (Fremont, Calif.). hTGR5-CHO cells were grown in Ham's F-12 media supplemented with 10% Fetal Bovine Serum, 1% Penicillin-Streptomycin, 2 mM L-Alanine L-Glutamine (Glutamax), and 800 μg/mL Geneticin selection. The cAMP production assay was performed using DiscoveRx's cAMP XS+ kit (Catalog No. 90-0075XL) following the manufacturer's recommended protocol. Briefly, hTGR5-CHO cells were harvested using non-enzymatic cell dissociation buffer (Sigma-Aldrich, St. Louis, Mo.) and 1×10^6 cells were combined in Phosphate-Buffered Saline (PBS) to a final volume of 496 μL to which 4 μL of 125 mM IBMX (Sigma-Aldrich, St. Louis, Mo.) was added. 500 μL of cAMP antibody solution was added to the harvested cells and incubated at room temperature for 20 min.
# Test compounds were serially diluted (half-log dilutions) in DMSO and then further diluted 1:50 in PBS, 10 mM HEPES buffer. 2 μL of serially diluted compound was added to a 384-well low volume plate (Greiner; cat #784075) and centrifuged briefly. 2 μl of the cell/cAMP antibody mixture was then added to each compound-containing well and allowed to incubate at room temperature for one hour. Following incubation, the XS+ kits' ED/Lysis/CL Substrate Working Solution was prepared following the manufacturer's recommended protocol and 4 μL was added to each well of the plate. The plate was then incubated for one hour at room temperature. Following incubation, 4 μL of Enzyme Acceptor reagent was added to the plate and allowed to incubate overnight at room temperature. Luminescent signal was then detected using the Viewlux instrument (Perkin-Elmer, Waltham, Mass.).
# Human and Mouse TGR5 cAMP
# (§1) In Table 52, EC50 values for both human and mouse cells were determined according to the TGR5 cAMP assays described above. […]
# mouse TGR5 receptor = biological target: T2, mouse TGR5 receptor (Mus musculus, UniProt Q80SS6); assay: Mouse TGR5 HTRF cAMP production assay (HEK293-EBNA cells, Cisbio cAMP HiRange kit); type: cell-based; conditions: HEK293-EBNA cells overexpressing mouse TGR5, HTRF cAMP assay
# T2 construct: host or cells: HEK293-EBNA (293 c18, ATCC CRL10852)
# T2 sequence (Q80SS6 1-329): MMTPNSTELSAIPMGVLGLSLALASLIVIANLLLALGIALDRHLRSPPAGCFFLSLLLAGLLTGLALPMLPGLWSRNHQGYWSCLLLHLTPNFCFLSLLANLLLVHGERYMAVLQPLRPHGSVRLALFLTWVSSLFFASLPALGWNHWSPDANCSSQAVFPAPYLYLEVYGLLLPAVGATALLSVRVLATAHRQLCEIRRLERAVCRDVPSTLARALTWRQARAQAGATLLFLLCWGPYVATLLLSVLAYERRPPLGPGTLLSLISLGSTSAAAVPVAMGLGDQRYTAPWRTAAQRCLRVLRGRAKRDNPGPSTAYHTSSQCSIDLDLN
# Method: Mouse TGR5 cAMP Production Assay
# Compounds of the present invention were evaluated for their ability to induce cAMP production in HEK-EBNA cells overexpressing the mouse TGR5 receptor. Human embryonic kidney cells (HEK293-EBNA) stably expressing mouse TGR5 receptor were established using the following procedure. Specifically, a commercially obtained gene encoding mouse TGR5 (accession number BC116914) from Thermo Scientific (Waltham, Mass.) was cloned into an episomal expression vector. The resulting expression plasmid was then transfected into 293 c18 (ATCC® CRL10852™) cells, which express the Epstein-Barr virus nuclear antigen EBNA1 and can support the replication of episomal vectors. Selection for the plasmid was maintained with Hygromycin B. Cells were cultured and maintained in DMEM (Sigma; cat #6429) supplemented with 10% Fetal Bovine Serum, 1% penicillin/streptomycin, 2 mM L-alanine L-glutamine (GlutaMax), and 250 μg/mL Hygromycin.
# We developed two cAMP production assays.
# (ii) HTRF cAMP Production Assay
# In this second cAMP production assay, the cAMP production was measured in 384-well low volume plates (Greiner; cat #784075) using the Cisbio™ cAMP HiRange HTRF Assay Kit (CisBio) according to the manufacturer's protocol.
# Briefly, compounds were initially diluted in 100% DMSO (12-point serial dilution by half logs) in a 96-well plate and then were further diluted 1:50 in PBS containing 10 mM HEPES. 5 μL were transferred to the 384-well assay plate in duplicate. HEK293-EBNA cells stably overexpressing mouse TGR5 were harvested using non-enzymatic cell dissociation buffer (Sigma), spun down, then resuspended in serum-free DMEM with 500 μM IBMX at a density of 500,000 cells/mL. 5 μL of cell suspension was transferred to each well of the 384-well assay plate already containing compound. The plate was covered and incubated at room temperature for 1 hour. The d2-cAMP and anti-cAMP Ab-cryptate stock solutions were prepared as per kit instructions. Then 5 μL of each conjugate (d2 and cryptate) were added to each well of the assay plate. The plate was covered and incubated at room temperature for one (1) hour. The plate was read on an Envision™ plate reader (PerkinElmer).
# as §1
Compound,EC50 (human TGR5 receptor),EC50 (mouse TGR5 receptor)
"COC(=O)[C@@H](N)CCCCNC(=O)CCCC1CCN(c2cc(N3CCC[C@H]3C(=O)NCCc3ccc(C#N)cc3)nc(C(F)(F)F)n2)CC1 [Compound 71, (S)-methyl 2-amino-6-(4-(1-(6-((S)-2-((4-cyanophenethyl)carbamoyl)-pyrrolidin-1-yl)-2-(trifluoromethyl)-pyrimidin-4-yl)piperidin-4-yl)butanamido)hexanoate]",< 100 nM,< 100 nM
"CCOC(=O)CCNC(=O)NCCC1CCN(c2cc(N3CCC[C@H]3C(=O)NCCc3ccc(C#N)cc3)nc(C(F)(F)F)n2)CC1 [Compound 55, (S)-ethyl 3-(3-(2-(1-(6-(2-((4-cyanophenethyl)carbamoyl)pyrrolidin-1-yl)-2-(trifluoromethyl)pyrimidin-4-yl)piperidin-4-yl)ethyl)ureido)propanoate]",< 100 nM,< 100 nM
"O=C(CCCC1CCN(c2cc(N3CCC[C@H]3C(=O)NCCc3ccccc3)nc(C(F)(F)F)n2)CC1)NCS(=O)(=O)O [Compound 365, (S)-(4-(1-(6-(2-(phenethylcarbamoyl)pyrrolidin-1-yl)-2-(trifluoromethyl)pyrimidin-4-yl)piperidin-4-yl)butanamido)methanesulfonic acid]",100 to 999 nM,100 to 999 nM
N#Cc1ccc(CCNC(=O)[C@@H]2CCCN2c2cc(C(F)(F)F)cc(N3CCC(CO)CC3)n2)cc1 [Compound 37],1000 to 30000 nM,> 30000 nM
"O=C(CCC1CCN(c2cc(N3CC[C@H]3C(=O)NCCc3ccc(C(F)(F)F)cc3)nc(C(F)(F)F)n2)CC1)NCCS(=O)(=O)O [Compound 254, (S)-2-(3-(1-(2-(trifluoromethyl)-6-(2-((4-(trifluoromethyl)-phenethyl)carbamoyl)azetidin-1-yl)pyrimidin-4-yl)piperidin-4-yl)propanamido)ethanesulfonic acid]",100 to 999 nM,< 100 nM
"CC(C)(C)OC(=O)NCCC1CCN(c2cc(N3CCC[C@@H](C(=O)NCCc4ccc(C#N)cc4)C3)nc(C(F)(F)F)n2)CC1 [Compound 312, (R)-tert-butyl (2-(1-(6-(3-((4-cyanophenethyl)carbamoyl)piperidin-1-yl)-2-(trifluoromethyl)pyrimidin-4-yl)piperidin-4-yl)ethyl)carbamate]",100 to 999 nM,100 to 999 nM
"N#Cc1ccc(CCNC(=O)[C@@H]2CCCN2c2cc(N3CCC(CCNc4c(NCCS(=O)(=O)NCC(=O)O)c(=O)c4=O)CC3)nc(C(F)(F)F)n2)cc1 [Compound 370, (S)-2-(2-((2-((2-(1-(6-(2-((4-cyanophenethyl)carbamoyl)pyrrolidin-1-yl)-2-(trifluoromethyl)pyrimidin-4-yl)piperidin-4-yl)ethyl)amino)-3,4-dioxocyclobut-1-en-1-yl)amino)ethylsulfonamido)acetic acid]",< 100 nM,< 100 nM
"N#Cc1ccc(CCNC(=O)[C@@H]2CCCN(c3cc(N4CCN(CCOCCO)CC4)nc(C(F)(F)F)n3)C2)cc1 [Compound 314, (R)-N-(4-cyanophenethyl)-1-(6-(4-(2-(2-hydroxyethoxy)ethyl)piperazin-1-yl)-2-(trifluoromethyl)pyrimidin-4-yl)piperidine-3-carboxamide]",100 to 999 nM,< 100 nM
"N#Cc1ccc(CCNC(=O)[C@@H]2CC(F)(F)CN2c2cc(N3CCC(CCNC(=O)NCCS(=O)(=O)O)CC3)nc(C(F)(F)F)n2)cc1 [Compound 216, (S)-2-(3-(2-(1-(6-(2-((4-cyanophenethyl)carbamoyl)-4,4-difluoropyrrolidin-1-yl)-2-(trifluoromethyl)pyrimidin-4-yl)piperidin-4-yl)ethyl)ureido)ethanesulfonic acid]",100 to 999 nM,100 to 999 nM
"CN(C(=O)NCCC(=O)O)c1ccc(-c2cc(N3CCC[C@H]3C(=O)NCCc3ccc(C#N)cc3)nc(C(F)(F)F)n2)cc1 [Compound 196, (S)-3-(3-(4-(6-(2-((4-cyanophenethyl)carbamoyl)pyrrolidin-1-yl)-2-(trifluoromethyl)pyrimidin-4-yl)phenyl)-3-methylureido)propanoic acid]",1000 to 30000 nM,100 to 999 nM

# Results, then the molecule that gave them:
EC50 (human TGR5 receptor),EC50 (mouse TGR5 receptor),Compound
< 100 nM,< 100 nM,"CC1(CO)CCN(C(=O)NCCC2CCN(c3cc(N4CCC[C@H]4C(=O)NCCc4ccc(C#N)cc4)nc(C(F)(F)F)n3)CC2)CC1 [Compound 84, (S)-N-(2-(1-(6-(2-((4-cyanophenethyl)carbamoyl)pyrrolidin-1-yl)-2-(trifluoromethyl)pyrimidin-4-yl)piperidin-4-yl)ethyl)-4-(hydroxymethyl)-4-methylpiperidine-1-carboxamide]"
< 100 nM,< 100 nM,"N#Cc1ccc(CCNC(=O)[C@@H]2CCCN2c2cc(-c3ccc(CCC(=O)O)cc3)cc(C(F)(F)F)n2)cc1 [Compound 205, (S)-3-(4-(2-(2-((4-cyanophenethyl)carbamoyl)pyrrolidin-1-yl)-6-(trifluoromethyl)pyridin-4-yl)phenyl)propanoic acid]"
< 100 nM,< 100 nM,"NCCNC(=O)CCCC1CCN(c2cc(N3CCC[C@H]3C(=O)NCCc3ccc(C(F)(F)F)cc3)nc(C(F)(F)F)n2)CC1 [Compound 90, (S)-1-(6-(4-(4-((2-aminoethyl)amino)-4-oxobutyl)piperidin-1-yl)-2-(trifluoromethyl)pyrimidin-4-yl)-N-(4-(trifluoromethyl)phenethyl)pyrrolidine-2-carboxamide hydrochloride]"
< 100 nM,< 100 nM,"CN(CCS(=O)(=O)O)c1c(NCCC2CCN(c3cc(N4CC[C@H]4C(=O)NCCc4ccc(C#N)cc4)nc(C(F)(F)F)n3)CC2)c(=O)c1=O [Compound 299, (S)-2-((2-((2-(1-(6-(2-((4-cyanophenethyl)carbamoyl)azetidin-1-yl)-2-(trifluoromethyl)pyrimidin-4-yl)piperidin-4-yl)ethyl)amino)-3,4-dioxocyclobut-1-en-1-yl)(methyl)amino)ethanesulfonic acid]"
100 to 999 nM,100 to 999 nM,"CN(C)CCN1CCN(c2cc(N3CC[C@H]3C(=O)NCCc3ccc(C#N)cc3)nc(C(F)(F)F)n2)CC1 [Compound 226, (S)-N-(4-cyanophenethyl)-1-(6-(4-(2-(dimethylamino)ethyl)piperazin-1-yl)-2-(trifluoromethyl)pyrimidin-4-yl)azetidine-2-carboxamide]"
